Where two headings read alike, the source gives them in different places.
Legend:
SU-DHL-2 = assay: Cell Titer Glo viability assay, SU-DHL-2; format: cell-based; settings: Homo sapiens, read-out: Inhibition of Viability, EC50
Experimental: (§1) All procedures were performed at Gilead Sciences, Inc. in Branford, The compound of formula (I), cyclophosphamide, doxorubicin and vincristine sulfate were dissolved in DMSO to prepare stock solutions that were serially diluted three-fold in DMSO in a 96 well plate format at 1000× so the final starting assay concentrations tested would be 10 μM, 200 μM, 10 μM, and 1 μM respectively, for each compound. Compound plates were diluted 1:100 in RPMI without serum or additives creating a 10× stock. Cells were seeded into a 96-well plate at 10,000-20,000 cells per well in 100 μl of growth media appropriate to the cell line supplemented with 100 U/L penicillin-streptomycin. OCI-Ly3, OCI-Ly4 and OCI-Ly7 were grown in Iscove's+20% FBS, OCI-Ly19 was grown in alphaMEM+20% FBS, and all other cell lines were grown in RPMI+10% FBS. To each well, 11 μl of 10× compound was added in a final concentration of 0.1% DMSO and cells were incubated at 37° C. in 5% CO2 for 72 hours. Cell viability was assessed with Cell Titer Glo (Promega, Madison, Wis.) following the manufacturer's protocol on an Envision plate reader (Perkin Elmer, Waltham, Mass.). EC50 values were determined using a four parameter variable slope model with GraphPad Prism 6.0 software. All EC50 values represent mean values of from duplicate dose response curves.

SU-DHL-4 = assay: Cell Titer Glo viability assay, SU-DHL-4; format: cell-based; settings: Homo sapiens, read-out: Inhibition of Viability, EC50
Experimental: as §1

SU-DHL-6 = assay: Cell Titer Glo viability assay, SU-DHL-6; format: cell-based; settings: Homo sapiens, read-out: Inhibition of Viability, EC50
Experimental: as §1

SU-DHL-10 = assay: Cell Titer Glo viability assay, SU-DHL-10; format: cell-based; settings: Homo sapiens, read-out: Inhibition of Viability, EC50
Experimental: as §1

Karpas 422 = assay: Cell Titer Glo viability assay, Karpas 422; format: cell-based; settings: Homo sapiens, read-out: Inhibition of Viability, EC50
Experimental: as §1

OCI-LY3 = assay: Cell Titer Glo viability assay, OCI-LY3; format: cell-based; settings: Homo sapiens, read-out: Inhibition of Viability, EC50
Experimental: as §1

OCI-LY4 = assay: Cell Titer Glo viability assay, OCI-LY4; format: cell-based; settings: read-out: Inhibition of Viability, EC50
Experimental: as §1

OCI-LY7 = assay: Cell Titer Glo viability assay, OCI-LY7; format: cell-based; settings: Homo sapiens, read-out: Inhibition of Viability, EC50
Experimental: as §1

OCI-LY19 = assay: Cell Titer Glo viability assay, OCI-LY19; format: cell-based; settings: Homo sapiens, read-out: Inhibition of Viability, EC50
Experimental: as §1

Pfeiffer = assay: Cell Titer Glo viability assay, Pfeiffer; format: cell-based; settings: Homo sapiens, read-out: Inhibition of Viability, EC50
Experimental: as §1

Mino = assay: Cell Titer Glo viability assay, Mino; format: cell-based; settings: Homo sapiens, read-out: Inhibition of Viability, EC50
Experimental: as §1

KMS-11 = assay: Cell Titer Glo viability assay, KMS-11; format: cell-based; settings: Homo sapiens, read-out: Inhibition of Viability, EC50
Experimental: as §1

MM1.S = assay: Cell Titer Glo viability assay, MM1.S; format: cell-based; settings: Homo sapiens, read-out: Inhibition of Viability, EC50
Experimental: as §1

OPM-2 = assay: Cell Titer Glo viability assay, OPM-2; format: cell-based; settings: Homo sapiens, read-out: Inhibition of Viability, EC50
Experimental: as §1

RPMI-8266 = assay: Cell Titer Glo viability assay, RPMI-8266; format: cell-based; settings: read-out: Inhibition of Viability, EC50
Experimental: as §1

WSU-FSCCL = assay: Cell Titer Glo viability assay, WSU-FSCCL; format: cell-based; settings: read-out: Inhibition of Viability, EC50
Experimental: as §1

WSU-NHL = assay: Cell Titer Glo viability assay, WSU-NHL; format: cell-based; settings: Homo sapiens, read-out: Inhibition of Viability, EC50
Experimental: as §1

[1] = tested on: 10 diffuse large B-cell lymphoma (DLBCL), 4 multiple myeloma (MM), 2 follicular lymphoma (FL), and 1 mantle cell lymphoma (MCL) cell lines; assay: Cell Titer Glo viability assay, summary over all cell lines tested; format: cell-based; settings: at concentrations <10000 nM
Experimental: as §1

DHL-10 = assay: Cell Titer Glo viability assay, DHL-10, alone or with compound of Formula I (Example 3); settings: for Fold shift: EC50 alone vs +300 nM Compound of Formula I
Experimental: All procedures were performed at Gilead Sciences, Inc. in Branford, Conn. […] Compound plates were diluted 1:100 in RPMI without serum or additives but containing either 1% DMSO or 3 μM of the compound of Formula I creating a 10× stock. The DLBCL cell line, DHL-10 was plated at 10,000 cells per well in RPMI supplemented with 10% FBS and 100 U/L penicillin-streptomycin. To each well containing cells, 11 μl of 10× compound mixture in serum-free media was added in a final concentration of 0.2% DMSO and cells were incubated at 37° C. in 5% CO2 for 72 hours. Cell viability was assessed using Cell Titer Glo (CTG, Promega, Madison, Wis.) following the manufacturer's protocol on an Envision plate reader (Perkin Elmer, Waltham, Mass.). CTG signals were recorded for individual compound treatments and combinations. EC50 values were determined using a four parameter variable slope model with GraphPad Prism 6.0 software.

[2] = Cell Titer Glo viability assay, summary over all cell lines tested; format: cell-based; settings: B-cell; range over the 17 cell lines of Table 1; read-out: EC50 values to inhibit cell viability, range over cell lines
Experimental: as §1

[3] = in vivo; cited from earlier work
[4] = Homo sapiens, 72 h, read-out: Inhibition of cell viability EC50, No Compound of Formula I
[5] = read-out: Inhibition of cell viability EC50, +300 nM Compound of Formula I, DHL-10, in combination with 300 nM compound of Formula I, 72 hours

O=P1(N(CCCl)CCCl)NCCCO1 (centres unmarked) [Cyclophosphamide, cyclophosphamide]
EC50 (SU-DHL-2; SU-DHL-2, 72 h): > 10000 nM
EC50 (SU-DHL-4; SU-DHL-4, 72 h): > 10000 nM
EC50 (SU-DHL-6; SU-DHL-6, 72 h): > 10000 nM
EC50 (SU-DHL-10; SU-DHL10, 72 h): > 10000 nM
EC50 (Karpas 422; KARPAS-422, 72 h): > 10000 nM
EC50 (OCI-LY3; OCI-Ly3, 72 h): > 10000 nM
EC50 (OCI-LY4; 72 h): > 10000 nM
EC50 (OCI-LY7; OCI-Ly7, 72 h): > 10000 nM
EC50 (OCI-LY19; OCI-LY19, 72 h): > 10000 nM
EC50 (Pfeiffer; 72 h): > 10000 nM
EC50 (Mino; MINO, 72 h): > 10000 nM
EC50 (KMS-11; KMS-11, 72 h): > 10000 nM
EC50 (MM1.S; 72 h): > 10000 nM
EC50 (OPM-2; OPM-2, 72 h): > 10000 nM
EC50 (RPMI-8266; RPMI8266, 72 h): > 10000 nM
EC50 (WSU-FSCCL; 72 h): > 10000 nM
EC50 (WSU-NHL; 72 h): > 10000 nM
inhibition of cell viability in any of the cell lines tested [1]: did not show inhibition cell viability

COc1cc2c(c(OC)c1OC)-c1ccc(OC)c(=O)cc1[C@@H](NC(C)=O)CC2 [Colchicine, colchicine]
Fold shift (DHL-10; DHL-10): 1.0
EC50 (DHL-10; [4]): 13.5 nM
EC50 (DHL-10; [5]): 14.2 nM

COc1cccc2c1C(=O)c1c(O)c3c(c(O)c1C2=O)C[C@@](O)(C(=O)CO)C[C@@H]3O[C@H]1C[C@H](N)[C@H](O)[C@H](C)O1 [Doxorubicin, doxorubicin]
EC50 (SU-DHL-2; SU-DHL-2, DLBCL, single agent, 72 hours): 216 nM
EC50 (SU-DHL-4; SU-DHL-4, DLBCL, single agent, 72 hours): 215 nM
EC50 (SU-DHL-6; SU-DHL-6, DLBCL, single agent, 72 hours): 125 nM
EC50 (SU-DHL-10; SU-DHL10, SU-DHL-10, DLBCL, single agent, 72 hours): 195 nM
EC50 (Karpas 422; Karpas 422, DLBCL, single agent, 72 hours): 305 nM
EC50 (OCI-LY3; OCI-LY3, DLBCL, single agent, 72 hours): 26 nM
EC50 (OCI-LY4; OCI-LY4, DLBCL, single agent, 72 hours): 37 nM
EC50 (OCI-LY7; OCI-LY7, DLBCL, single agent, 72 hours): 199 nM
EC50 (OCI-LY19; OCI-LY19, DLBCL, single agent, 72 hours): 3.1 nM
EC50 (Pfeiffer; DLBCL, single agent, 72 hours): 198 nM
EC50 (Mino; Mino, MCL, single agent, 72 hours): 114 nM
EC50 (KMS-11; KMS-11, MM, single agent, 72 hours): 469 nM
EC50 (MM1.S; MM, single agent, 72 hours): 66 nM
EC50 (OPM-2; OPM-2, MM, single agent, 72 hours): 557 nM
EC50 (RPMI-8266; RPMI8266, RPMI-8266, MM, single agent, 72 hours): 176 nM
EC50 (WSU-FSCCL; WSU-FSCCL, FL, single agent, 72 hours): 52 nM
EC50 (WSU-NHL; FL, single agent, 72 hours): 128 nM
EC50 [2]: 3.1 to 557 nM
EC50 (DHL-10; [4]): 152 nM
EC50 (DHL-10; [5]): 161 nM

CC[C@]1(O)C[C@@H]2CN(CCc3c([nH]c4ccccc34)[C@@](C(=O)OC)(c3cc4c(cc3OC)N(C)[C@H]3[C@@](O)(C(N)=O)[C@H](O)[C@]5(CC)C=CCN6CC[C@]43[C@@H]65)C2)C1 [Vindesine, vindesine]
serum half-life [3]: 24 h

CC(=O)O[C@H]1C(=O)[C@@]2(C)[C@H]([C@H](OC(=O)c3ccccc3)[C@]3(O)C[C@H](OC(=O)[C@H](O)[C@@H](NC(=O)c4ccccc4)c4ccccc4)C(C)=C1C3(C)C)[C@]1(OC(C)=O)CO[C@@H]1C[C@@H]2O [Taxol, taxol]
EC50 (DHL-10; [4]): 7.1 nM
EC50 (DHL-10; [5]): 5.6 nM

COc1ccc(/C=C\c2cc(OC)c(OC)c(OC)c2)cc1O [Combretastatin A4, combretastatin A4]
Fold shift (DHL-10; DHL-10): 1.2
EC50 (DHL-10; [5]): 4.8 nM
EC50 (DHL-10; read-out: Inhibition of cell viability EC50, No Compound of Formula I, DHL-10, compound alone, 72 hours): 5.9 nM

Source: patent US10080756B2, “Combination methods for treating cancers” (Gilead Sciences, Inc., priority 2014, dated 2018)
